Data reported in article PMC8710804, “Stapled Anoplin as an Antibacterial Agent” (Frontiers in Microbiology, 2021).
Values joined by “and” are separate entries in the source; they are usually repeats but may differ in a detail not shown here. Identical values can stand only once. Where a SMILES comes first, the peptide text is derived from it. Bridges are numbered along the chain shown (N, C = ends). Where no end group is shown, it is not given here. [ ]: non-standard residue; d: D form. S5 = C=CCCC[C@](C)(N)C(=O)O

How the values were obtained:
P. aeruginosa PAO1 = details: cation-adjusted MHB, ~5 × 10^5 CFU/ml, 37°C, 19 h + 1 h resazurin, OD600, at least three replicates for peptides, one for antibiotics
P. aeruginosa ATCC 27853 = details: cation-adjusted MHB, ~5 × 10^5 CFU/ml, 37°C, 19 h + 1 h resazurin, OD600, at least three replicates for peptides, one for antibiotics
S. aureus ATCC 29213 = details: cation-adjusted MHB, ~5 × 10^5 CFU/ml, 37°C, 19 h + 1 h resazurin, OD600, at least three replicates for peptides, one for antibiotics
E. coli WR 3551/98 ESBL+ = details: cation-adjusted MHB, ~5 × 10^5 CFU/ml, 37°C, 19 h + 1 h resazurin, OD600, at least three replicates for peptides, one for antibiotics
S. typhimurium LT2 = details: cation-adjusted MHB, ~5 × 10^5 CFU/ml, 37°C, 19 h + 1 h resazurin, OD600, at least three replicates for peptides, one for antibiotics
B. subtilis 168 = details: cation-adjusted MHB, ~5 × 10^5 CFU/ml, 37°C, 19 h + 1 h resazurin, OD600, at least three replicates for peptides, one for antibiotics
trypsin = experiment: Trypsin digestion assay; assay type: in vitro ADME; details: trypsin:peptide 1:1333, 0.1 M NH4HCO3 pH 8.0, 37°C, RP-HPLC peak area, performed thrice; for stability against trypsin (comparison in words): up to 8 min
Procedure: 250 μl of peptide solution in ammonium bicarbonate buffer (0.1 M NH4HCO3, pH 8.0) and an appropriate amount of trypsin (Sigma-Aldrich) solution in water were incubated at 37°C with rapid shaking (600 rpm). Trypsin and peptides were mixed in the ratio (1:1333; [Luong et al., 2017b]). After 2, 4, 6, and 8 min of incubation, 60 μl of digestion mixture was taken and treated with 60 μl of a solution of 50% acetonitrile containing 1% TFA to stop the digestion. Peptide degradation was analyzed with RP-HPLC using analytical methods to assess peptide purity (see subsection Synthesis of stapled anoplins). The results were calculated as the percentage of peptide peak of area degradation. The total area of every peak was designated for experiments without trypsin. Each of the experiments was performed thrice.

E. coli 1841/06 ESBL+ = details: cation-adjusted MHB, ~5 × 10^5 CFU/ml, 37°C, 19 h + 1 h resazurin, OD600, at least three replicates for peptides, one for antibiotics
E. coli O157:H7 = details: cation-adjusted MHB, ~5 × 10^5 CFU/ml, 37°C, 19 h + 1 h resazurin, OD600, at least three replicates for peptides, one for antibiotics
[1] = tested on: S. aureus ATCC BAA1720 MRSA; details: cation-adjusted MHB, ~5 × 10^5 CFU/ml, 37°C, 19 h + 1 h resazurin, OD600, at least three replicates for peptides, one for antibiotics
E. coli K12 MG1655 = details: cation-adjusted MHB, ~5 × 10^5 CFU/ml, 37°C, 19 h + 1 h resazurin, OD600, at least three replicates for peptides, one for antibiotics
sheep red blood cells = experiment: Hemolysis assay; assay type: cell-based; details: sheep RBC in PBS pH 7.4, 37°C, 30 min, absorbance 405 nm, relative to 1% Triton-X-100, average of three independent measurements
Procedure: Sheep RBC (200 μl) were pelleted (3,500 rpm for 5 min), washed three times with PBS buffer (PBS 10 mM and 150 mM NaCl, pH 7.4). The cells were then diluted in PBS buffer (10 ml), divided into 50 parts into 1.5 ml tubes, and pelleted by centrifugation. Various concentrations of peptide solutions (200 μl) were added to the cells and incubated with shaking (165 rpm, 37°C) for 30 min. The cells were pelleted by centrifugation (3,500 rpm for 5 min). Then, 100 μl of supernatant from each tube was collected into a clear 96-well plate, and the absorbance of the released hemoglobin was measured with a plate reader spectrophotometer (Microplate Reader Biotek, Winooski, VT, United States) at 405 nm. Hemolysis was determined relative to the negative control (PBS) and the positive control (1% v/v Triton-X-100 that lyses 100% of RBC). The percentage of hemolysis was determined using the following equation:
where A0 is the absorbance intensity of the RBC in buffer (background), and A and A100 are the absorbance intensities of the RBS in the presence of peptides and Triton X-100, respectively.The tests were performed with duplicate samples, and the average values of three independent measurements were recorded.

HEK 293 cells [2] = experiment: DAPI staining, confocal microscopy of cell morphology; assay type: cell-based, human; details: HEK 293, 24 h, 64 μM of anoplin, 8–32 μM of derivatives (32 μM of anoplin[2-6]), confocal microscope
Procedure: 1 × 10^5 cells were seeded into coverslips and incubated for 24 h. The cells were then treated with anoplin (64 μM) or its derivatives (8–32 μM) for 24 h. Next, cells were washed with PBS and fixed in 4% PFA for 15 min at room temperature. After three washes with PBS, cells were stained with DAPI (4′,6-diamidino-2-phenylindole, dihydrochloride; Boster) for 5 min (as indicated in the instruction). Coverslips with cells were washed three times and mounted on a glass microscope slide using a Dako Fluorescence Mounting Medium. Images were acquired with Axio Imager Z2 LSM 700 Zeiss confocal microscope.

HEK 293 cells [3] = experiment: Cytotoxicity assay (MTT); assay type: cell-based, human; details: n = 3
Procedure: The HEK 293 cells were seeded at a density 2 × 10^4 per well on a 96-well plate and incubated in high glucose DMEM medium (Lonza) supplemented with 10% FBS and 50 U/ml of penicillin–streptomycin at 37°C in 5% CO2. After 24 h, cells were covered with a fresh medium containing tested peptides at different concentrations (4, 8, 16, and 32 μM). After 24 or 48 h of incubation, cells viability was tested using MTT [3-(4,5-dimethylthiazol-2-yl)-2,5-diphenyltetrazolium bromide] (Merck). Briefly, 10 μl of 5 mg/ml MTT was added to each well and incubated for 4 h. Formazan produced from MTT was solubilized during overnight incubation in 100 μl of 10% SDS in 0.01 M HCl. Absorbance at 590 nm was measured using Microplate Reader Biotek (Winooski, VT, United States). The experiment was performed in triplicates.

| Compound | MIC (P. aeruginosa PAO1) [µM] | MIC (P. aeruginosa ATCC 27853) [µM] | MIC (S. aureus ATCC 29213) [µM] | MIC (E. coli WR 3551/98 ESBL+) [µM] | MIC (S. typhimurium LT2) [µM] | MIC (B. subtilis 168) [µM] | stability against trypsin (comparison in words) (trypsin) | MIC (E. coli 1841/06 ESBL+) [µM] | MIC (E. coli O157:H7) [µM] | MIC [1] [µM] | MIC (E. coli K12 MG1655) [µM] | Hemolytic activity (sheep red blood cells; 4 μM peptide) [%] | Hemolytic activity (sheep red blood cells; 8 μM peptide) [%] | Hemolytic activity (sheep red blood cells; 16 μM peptide) [%] | Hemolytic activity (sheep red blood cells; 32 μM peptide) | Hemolytic activity (sheep red blood cells; 64 μM peptide) [%] | morphology of cells (HEK 293 cells [2]) | also measured |
| --- | --- | --- | --- | --- | --- | --- | --- | --- | --- | --- | --- | --- | --- | --- | --- | --- | --- | --- |
| C=CCCC[C@](C)(NC(=O)[C@H](CCCCN)NC(=O)[C@H](CC(C)C)NC(=O)[C@H](CC(C)C)NC(=O)CN)C(=O)N[C@H](C(=O)N[C@@H](CCCCN)C(=O)N[C@H](C(=O)N[C@@](C)(CCCC=C)C(=O)N[C@@H](CC(C)C)C(N)=O)[C@@H](C)O)[C@@H](C)CC [anoplinS5(5,9)] (H-GLLK[S5]IKT[S5]L-NH2) | 64 | ≥64 | 8 | 64 | ≥64 | 8 | significantly higher stability against trypsin | 32 | 32 | 8 | 64 | 6.7 | 7.2 | 8.9 | 11.9% | 14.2 | altered cell appearance and the presence of cellular debris | stability against trypsin (comparison in words) (trypsin; listed as S5(5-9) peptide): highest enzymatic resistance |
| NC[C@H]1O[C@H](O[C@H]2[C@H](O)[C@@H](O[C@H]3O[C@H](CO)[C@@H](O)[C@H](N)[C@H]3O)[C@H](N)C[C@@H]2N)[C@H](O)[C@@H](O)[C@@H]1O [kanamycin] | ≥64 | ≥64 | 4 | ≥64 | ≥64 | 0.25 |  | ≥64 | 2 | ≥64 | 8 |  |  |  |  |  |  |  |
| CC[C@H](C)[C@@H]1NC(=O)[C@@](C)(NC(=O)[C@H](CCCCN)NC(=O)[C@H](CC(C)C)NC(=O)[C@H](CC(C)C)NC(=O)CN)CCCC=CCCC[C@@](C)(C(=O)N[C@@H](CC(C)C)C(N)=O)NC(=O)[C@H]([C@@H](C)O)NC(=O)[C@H](CCCCN)NC1=O [anoplin[5-9]] (H-GLLK[S5]IKT[S5]L-NH2; staple 5-9) | 16 | 32 | 4 | 16 | 32 | 4 | significantly higher stability against trypsin | 8 | 8 | 4 | 16 | 6.5 | 16.6 | 29.8 |  | 62.7 | altered cell appearance and the presence of cellular debris | dead cells (HEK 293 cells [3]; HEK 293, 16 μM peptide): approximately 60%; effect on living cells (HEK 293 cells [3]; HEK 293, 32 μM peptide): nearly eliminated all living cells; Hemolytic activity (sheep red blood cells; 32 μM peptide, listed as Anoplin[5-9]): 43.2%; Hemolytic activity (sheep red blood cells; 32 μM peptide, listed as anoplin [5-9]): 43% |
| GLLKRIKTLL-NH2 [anoplin] | 16 | 32 | ≥64 | 64 | 64 | 16 |  | 64 | 64 | ≥64 | 32 | 0.5 | 1.3 | 0.7 | 4% and 0.6% | 2.3 | not altered | time of incubation with trypsin to complete decay of the peptide peak (trypsin; 600 rpm, sampled at 2, 4, 6, 8 min): 4 to 6 min; effect on cell viability compared to untreated control cells (HEK 293 cells [3]; HEK 293, 4-32 μM peptide, 24 and 48 h of treatment): no significant effect on cell viability |
| polymyxin B | 0.5 | 0.25 | ≥64 | 0.5 | 0.5 | 2 |  | 0.25 | 0.5 | ≥64 | 0.25 |  |  |  |  |  |  |  |
